Columns and labels:
Assay type in all cases: functional
OVCAR-8 = assay: Growth inhibition of human OVCAR8 cells assessed as cell growth at 5X10'-7 M after 48 hrs by sulforhodamine B assay; conditions: OVCAR-8, 48 h, read-out: Activity
A498 = assay: Growth inhibition of human A498 cells assessed as cell growth at 5X10'-7 M after 48 hrs by sulforhodamine B assay; conditions: A498, 48 h, read-out: Activity
RPMI-8226 = assay: Growth inhibition of human RPMI8226 cells assessed as cell growth at 5X10'-8 M after 48 hrs by sulforhodamine B assay; conditions: RPMI-8226, 48 h, read-out: Activity
NCI-H322M [1] = assay: Growth inhibition of human NCI-H322M cells assessed as cell growth at 5X10'-9 M after 48 hrs by sulforhodamine B assay; conditions: read-out: Activity
Malme-3M = assay: Growth inhibition of human MALME-3M cells assessed as cell growth at 5X10'-7 M after 48 hrs by sulforhodamine B assay; conditions: read-out: Activity
HOP-62 [2] = assay: Growth inhibition of human HOP62 cells assessed as cell growth at 5X10'-6 M after 48 hrs by sulforhodamine B assay; conditions: HOP-62, 48 h, read-out: Activity
SNB-19 = assay: Growth inhibition of human SNB19 cells assessed as cell growth at 5X10'-6 M after 48 hrs by sulforhodamine B assay; conditions: SNB-19, 48 h, read-out: Activity
BT-549 = assay: Growth inhibition of human BT549 cells assessed as cell growth at 5X10'-9 M after 48 hrs by sulforhodamine B assay; conditions: BT-549, 48 h, read-out: Activity
MCF7 = assay: Growth inhibition of human MCF7 cells assessed as cell growth at 5X10'-8 M after 48 hrs by sulforhodamine B assay; conditions: MCF7, 48 h, read-out: Activity
K562 [3] = assay: Growth inhibition of human K562 cells assessed as cell growth at 5X10'-9 M after 48 hrs by sulforhodamine B assay; conditions: K562, 48 h, read-out: Activity
[4] = Growth inhibition of human HCC2998 cells assessed as cell growth at 5X10'-5 M after 48 hrs by sulforhodamine B assay; conditions: HCC 2998, 48 h, read-out: Activity
DU-145 [5] = assay: Growth inhibition of human DU145 cells assessed as cell growth at 5X10'-8 M after 48 hrs by sulforhodamine B assay; conditions: DU-145, 48 h, read-out: Activity
HL-60(TB) = assay: Growth inhibition of human HL-60(TB) cells assessed as cell growth at 5X10'-9 M after 48 hrs by sulforhodamine B assay; conditions: HL-60, 48 h, read-out: Activity
CCRF-CEM [6] = assay: Growth inhibition of human CCRF-CEM cells assessed as cell growth at 5X10'-5 M after 48 hrs by sulforhodamine B assay; conditions: read-out: Activity
NCI-H522 [7] = assay: Growth inhibition of human NCI-H522 cells assessed as cell growth at 5X10'-6 M after 48 hrs by sulforhodamine B assay; conditions: NCI-H522, 48 h, read-out: Activity
A549 = assay: Growth inhibition of human A549/ATCC cells assessed as cell growth at 5X10'-5 M after 48 hrs by sulforhodamine B assay; conditions: A549, 48 h, read-out: Activity
HOP-62 [8] = assay: Growth inhibition of human HOP62 cells assessed as cell growth at 5X10'-5 M after 48 hrs by sulforhodamine B assay; conditions: HOP-62, 48 h, read-out: Activity
SK-MEL-2 = assay: Growth inhibition of human SK-MEL-2 cells assessed as cell growth at 5X10'-7 M after 48 hrs by sulforhodamine B assay; conditions: SK-MEL-2, 48 h, read-out: Activity
SNB-75 = assay: Growth inhibition of human SNB75 cells assessed as cell growth at 5X10'-8 M after 48 hrs by sulforhodamine B assay; conditions: SNB-75, 48 h, read-out: Activity
CCRF-CEM [9] = assay: Growth inhibition of human CCRF-CEM cells assessed as cell growth at 5X10'-7 M after 48 hrs by sulforhodamine B assay; conditions: read-out: Activity
ACHN = assay: Growth inhibition of human ACHN cells assessed as cell growth at 5X10'-7 M after 48 hrs by sulforhodamine B assay; conditions: read-out: Activity
NCI-H23 = assay: Growth inhibition of human NCI-H23 cells assessed as cell growth at 5X10'-7 M after 48 hrs by sulforhodamine B assay; conditions: NCI-H23, 48 h, read-out: Activity
M14 = assay: Growth inhibition of human M14 cells assessed as cell growth at 5X10'-8 M after 48 hrs by sulforhodamine B assay; conditions: M14, 48 h, read-out: Activity
RXF 393 = assay: Growth inhibition of human RXF393 cells assessed as cell growth at 5X10'-5 M after 48 hrs by sulforhodamine B assay; conditions: RXF 393, 48 h, read-out: Activity
SK-OV-3 [10] = assay: Growth inhibition of human SKOV3 cells assessed as cell growth at 5X10'-8 M after 48 hrs by sulforhodamine B assay; conditions: SK-OV-3, 48 h, read-out: Activity
KM12 = assay: Growth inhibition of human KM12 cells assessed as cell growth at 5X10'-7 M after 48 hrs by sulforhodamine B assay; conditions: KM12, 48 h, read-out: Activity
NCI-H522 [11] = assay: Growth inhibition of human NCI-H522 cells assessed as cell growth at 5X10'-5 M after 48 hrs by sulforhodamine B assay; conditions: NCI-H522, 48 h, read-out: Activity
[12] = Growth inhibition of human NCI-ADR-RES cells assessed as cell growth at 5X10'-7 M after 48 hrs by sulforhodamine B assay; conditions: read-out: Activity
K562 [13] = assay: Growth inhibition of human K562 cells assessed as cell growth at 5X10'-7 M after 48 hrs by sulforhodamine B assay; conditions: K562, 48 h, read-out: Activity
HOP-92 = assay: Growth inhibition of human HOP92 cells assessed as cell growth at 5X10'-8 M after 48 hrs by sulforhodamine B assay; conditions: HOP-92, 48 h, read-out: Activity
NCI-H522 [14] = assay: Growth inhibition of human NCI-H522 cells assessed as cell growth at 5X10'-9 M after 48 hrs by sulforhodamine B assay; conditions: NCI-H522, 48 h, read-out: Activity
[15] = Growth inhibition of human HCC2998 cells assessed as cell growth at 5X10'-8 M after 48 hrs by sulforhodamine B assay; conditions: HCC 2998, 48 h, read-out: Activity
DU-145 [16] = assay: Growth inhibition of human DU145 cells assessed as cell growth at 5X10'-9 M after 48 hrs by sulforhodamine B assay; conditions: DU-145, 48 h, read-out: Activity
TK-10 = assay: Growth inhibition of human TK10 cells assessed as cell growth at 5X10'-8 M after 48 hrs by sulforhodamine B assay; conditions: TK-10, 48 h, read-out: Activity
SK-OV-3 [17] = assay: Growth inhibition of human SKOV3 cells assessed as cell growth at 5X10'-9 M after 48 hrs by sulforhodamine B assay; conditions: SK-OV-3, 48 h, read-out: Activity
OVCAR-3 = assay: Growth inhibition of human OVCAR3 cells assessed as cell growth at 5X10'-9 M after 48 hrs by sulforhodamine B assay; conditions: OVCAR-3, 48 h, read-out: Activity
NCI-H322M [18] = assay: Growth inhibition of human NCI-H322M cells assessed as cell growth at 5X10'-8 M after 48 hrs by sulforhodamine B assay; conditions: read-out: Activity

Row | SMILES | growth at 0.5 µM (OVCAR-8) | growth at 0.5 µM (A498) | growth at 0.05 µM (RPMI-8226) | growth at 0.005 µM (NCI-H322M [1]) | growth at 0.5 µM (Malme-3M) | growth at 5 µM (HOP-62 [2]) | growth at 5 µM (SNB-19) | growth at 0.005 µM (BT-549) | growth at 0.05 µM (MCF7) | growth at 0.005 µM (K562 [3]) | growth at 50 µM [4] | growth at 0.05 µM (DU-145 [5]) | growth at 0.005 µM (HL-60(TB)) | growth at 50 µM (CCRF-CEM [6]) | growth at 5 µM (NCI-H522 [7]) | growth at 50 µM (A549) | growth at 50 µM (HOP-62 [8]) | growth at 0.5 µM (SK-MEL-2) | growth at 0.05 µM (SNB-75) | growth at 0.5 µM (CCRF-CEM [9]) | other results
1 | COc1cc(-c2nn(-c3cccc(NC(=O)c4cccc(C(F)(F)F)c4)c3)cc2-c2ccncc2)ccc1Cl | 91% | 61% | 98% | 91% | 89% | 47% | 28% | 99% | 90% | 94% | -17% | 95% | 89% | 4% | -10% | 9% | 51% | 91% | 89% | 88% | growth at 0.5 µM (ACHN): 81%; growth at 0.5 µM (NCI-H23): 86%; growth at 0.05 µM (M14): 94%; growth at 50 µM (RXF 393): -2%; growth at 0.05 µM (SK-OV-3 [10]): 103%; growth at 0.5 µM (KM12): 89%; growth at 50 µM (NCI-H522 [11]): -24%; growth at 0.5 µM [12]: 86%; growth at 0.5 µM (K562 [13]): 83%; growth at 0.05 µM (HOP-92): 81%; growth at 0.005 µM (NCI-H522 [14]): 95%; growth at 0.05 µM [15]: 100%; growth at 0.005 µM (DU-145 [16]): 98%; growth at 0.05 µM (TK-10): 97%; growth at 0.005 µM (SK-OV-3 [17]): 96%; growth at 0.005 µM (OVCAR-3): 105%; growth at 0.05 µM (NCI-H322M [18]): 88%
2 | COc1cc(-c2nn(-c3cccc(NC(=O)Nc4cccc(C(F)(F)F)c4)c3)cc2-c2ccncc2)ccc1Cl | 65% | 73% | 97% | 89% | 94% | -9% | -8% | 98% | 93% | 99% | -79% | 101% | 90% | 3% | -30% | 1% | -32% | 97% | 95% | 69% | growth at 0.5 µM (ACHN): 58%; growth at 0.5 µM (NCI-H23): 90%; growth at 0.05 µM (M14): 97%; growth at 50 µM (RXF 393): -53%; growth at 0.05 µM (SK-OV-3 [10]): 99%; growth at 0.5 µM (KM12): 55%; growth at 50 µM (NCI-H522 [11]): -41%; growth at 0.5 µM [12]: 65%; growth at 0.5 µM (K562 [13]): 53%; growth at 0.05 µM (HOP-92): 90%; growth at 0.005 µM (NCI-H522 [14]): 95%; growth at 0.05 µM [15]: 98%; growth at 0.005 µM (DU-145 [16]): 105%; growth at 0.05 µM (TK-10): 93%; growth at 0.005 µM (SK-OV-3 [17]): 100%; growth at 0.005 µM (OVCAR-3): 108%; growth at 0.05 µM (NCI-H322M [18]): 92%
3 | O=C(Nc1cccc(-n2cc(-c3ccncc3)c(-c3ccc(Cl)c(O)c3)n2)c1)c1ccc(N2CCOCC2)c(C(F)(F)F)c1 | 86% | 89% | 99% | 100% | 89% | 67% | 45% | 100% | 85% | 96% | 4% | 97% | 98% | 14% | 29% | 4% | 6% | 102% | 88% | 81% | growth at 0.5 µM (ACHN): 85%; growth at 0.5 µM (NCI-H23): 96%; growth at 0.05 µM (M14): 94%; growth at 50 µM (RXF 393): -37%; growth at 0.05 µM (SK-OV-3 [10]): 98%; growth at 0.5 µM (KM12): 85%; growth at 50 µM (NCI-H522 [11]): -2%; growth at 0.5 µM [12]: 96%; growth at 0.5 µM (K562 [13]): 103%; growth at 0.05 µM (HOP-92): 78%; growth at 0.005 µM (NCI-H522 [14]): 93%; growth at 0.05 µM [15]: 99%; growth at 0.005 µM (DU-145 [16]): 98%; growth at 0.05 µM (TK-10): 92%; growth at 0.005 µM (SK-OV-3 [17]): 95%; growth at 0.005 µM (OVCAR-3): 98%; growth at 0.05 µM (NCI-H322M [18]): 104%

Reference: ChEMBL document CHEMBL2440076, “New triarylpyrazoles as broad-spectrum anticancer agents: design, synthesis, and biological evaluation” (Eur J Med Chem, 2013)
